According to PubChem BioAssay AID330 (DTP/NCI, 2004):
Several values for one entry are separate records, joined by “and”; a condition that tells them apart may be missing. Equal entries are not always repeated. Toxic doses and inconclusive results are not listed. The calls were made as follows: active = survival T/C of 150% or more; inactive = T/C below 125% in these data.

System: P388 leukemia ip, CD2F1 mice, survival T/C
Assay: NCI In Vivo Anticancer Drug Screen. Data for tumor model P388 Leukemia (intraperitoneal) in CD2F1 (CDF1) mice
Conditions: endpoint: median survival time, higher = longer survival
In short: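 Mice carrying the transplanted tumor received test compound or vehicle. Survival was recorded in each group, and the value is the treated-group measurement divided by that of the vehicle-treated control group.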

[1] = dose: 50.0 mg/kg/injection, schedule: Q04DX002 (ip), vehicle: saline with Tween-80
[2] = dose: 100.0 mg/kg/injection, schedule: Q04DX002 (ip), vehicle: saline with Tween-80
[3] = dose: 200.0 mg/kg/injection, schedule: Q04DX002 (ip), vehicle: saline with Tween-80
[4] = dose: 50.0 mg/kg/injection, schedule: Q01DX009 (ip), vehicle: saline
[5] = dose: 100.0 mg/kg/injection, schedule: Q01DX009 (ip), vehicle: saline with Tween-80
[6] = dose: 100.0 mg/kg/injection, schedule: Q01DX009 (ip), vehicle: saline
[7] = dose: 200.0 mg/kg/injection, schedule: Q01DX009 (ip), vehicle: saline with Tween-80
[8] = dose: 200.0 mg/kg/injection, schedule: Q01DX009 (ip), vehicle: saline
[9] = dose: 60.0 mg/kg/injection, schedule: Q01DX005 (ip), vehicle: saline with Tween-80

Measured: T/C

[Cl][Sn]([CH2][Sn]([Cl])([c]1ccccc1)[c]1ccccc1)([c]1ccccc1)[c]1ccccc1
inactive: dose: 0.39 mg/kg/injection, schedule: Q01DX005 (ip), vehicle: Klucel (hydroxypropylcellulose) (HPC) 103 % of control | dose: 0.79 mg/kg/injection, schedule: Q01DX005 (ip), vehicle: Klucel (hydroxypropylcellulose) (HPC) 104 % of control | dose: 1.56 mg/kg/injection, schedule: Q01DX005 (ip), vehicle: Klucel (hydroxypropylcellulose) (HPC) 106 % of control | dose: 3.12 mg/kg/injection, schedule: Q01DX005 (ip), vehicle: Klucel (hydroxypropylcellulose) (HPC) 97 % of control | dose: 12.5 mg/kg/injection, schedule: Q01DX005 (ip), vehicle: Klucel (hydroxypropylcellulose) (HPC) 116 % of control

CN(C)CCCNc1c2ccccc2nc2cc([N+](=O)[O-])ccc12
inactive: dose: 0.1 mg/kg/injection, schedule: Q01DX009 (ip), vehicle: water 103 % of control | dose: 0.2 mg/kg/injection, schedule: Q01DX009 (ip), vehicle: water 104 % of control | dose: 0.39 mg/kg/injection, schedule: Q01DX009 (ip), vehicle: water 100 % of control | dose: 0.78 mg/kg/injection, schedule: Q01DX009 (ip), vehicle: water 100 % of control and 117 % of control | dose: 1.56 mg/kg/injection, schedule: Q01DX009 (ip), vehicle: water 102 % of control and 108 % of control | dose: 3.13 mg/kg/injection, schedule: Q01DX009 (ip), vehicle: water 123 % of control | dose: 6.25 mg/kg/injection, schedule: Q01DX009 (ip), vehicle: water 95 % of control

CSc1c(C(=O)O)cc(C(C)(C)C)cc1C(=O)O
inactive: dose: 50.0 mg/kg/injection, schedule: Q01DX009 (ip), vehicle: Klucel (hydroxypropylcellulose) (HPC) 91 % of control | dose: 100.0 mg/kg/injection, schedule: Q01DX009 (ip), vehicle: Klucel (hydroxypropylcellulose) (HPC) 100 % of control | dose: 200.0 mg/kg/injection, schedule: Q01DX009 (ip), vehicle: Klucel (hydroxypropylcellulose) (HPC) 91 % of control

Cc1ccc(C(=Nc2ccccc2)c2ccccc2C)cc1
inactive: [1] 91 % of control and 95 % of control | [2] 104 % of control and 86 % of control | [3] 87 % of control and 93 % of control | dose: 400.0 mg/kg/injection, schedule: Q04DX002 (ip), vehicle: saline with Tween-80 86 % of control and 95 % of control

c1ccc2n[nH]nc2c1
inactive: [4] 100 % of control | dose: 100.0 mg/kg/injection, schedule: Q01DX001 (ip), vehicle: saline with Tween-80 112 % of control | [5] 104 % of control | [6] 100 % of control | dose: 100.0 mg/kg/injection, schedule: Q04DX003 (ip), vehicle: saline with Tween-80 95 % of control | dose: 200.0 mg/kg/injection, schedule: Q01DX001 (ip), vehicle: saline with Tween-80 105 % of control | [7] 109 % of control | [8] 104 % of control | dose: 200.0 mg/kg/injection, schedule: Q04DX003 (ip), vehicle: saline with Tween-80 109 % of control

c1ccc([P+](CCN2Cc3ccccc3C2)(c2ccccc2)c2ccccc2)cc1
inactive: dose: 0.78 mg/kg/injection, schedule: Q01DX009 (ip), vehicle: other 119 % of control | dose: 0.78 mg/kg/injection, schedule: Q01DX009 (ip), vehicle: saline 101 % of control | dose: 1.56 mg/kg/injection, schedule: Q01DX009 (ip), vehicle: other 110 % of control | dose: 1.56 mg/kg/injection, schedule: Q01DX009 (ip), vehicle: saline 101 % of control | dose: 3.12 mg/kg/injection, schedule: Q01DX009 (ip), vehicle: saline 107 % of control | dose: 3.13 mg/kg/injection, schedule: Q01DX009 (ip), vehicle: other 114 % of control | dose: 3.13 mg/kg/injection, schedule: Q01DX009 (ip), vehicle: saline 105 % of control | dose: 6.25 mg/kg/injection, schedule: Q01DX009 (ip), vehicle: other 118 % of control | dose: 6.25 mg/kg/injection, schedule: Q01DX009 (ip), vehicle: saline 109 % of control and 119 % of control | dose: 12.5 mg/kg/injection, schedule: Q01DX009 (ip), vehicle: other 108 % of control | dose: 12.5 mg/kg/injection, schedule: Q01DX009 (ip), vehicle: saline 120 % of control and 122 % of control | dose: 25.0 mg/kg/injection, schedule: Q01DX009 (ip), vehicle: other 88 % of control

CNCCNc1ccc(C)c2sc3ccc(O)cc3c(=O)c12
inactive: dose: 25.0 mg/kg/injection, schedule: Q01DX009 (ip), vehicle: Klucel (hydroxypropylcellulose) (HPC) 95 % of control

COC(=O)C1=CN2CCc3c([nH]c4ccccc34)C2(C)C2CN3CCc4c([nH]c5ccccc45)C3CC12 (configuration not stated)
inactive: dose: 2.25 mg/kg/injection, schedule: Q01DX009 (ip), vehicle: Klucel (hydroxypropylcellulose) (HPC) 98 % of control | dose: 4.5 mg/kg/injection, schedule: Q01DX009 (ip), vehicle: Klucel (hydroxypropylcellulose) (HPC) 106 % of control | dose: 9.0 mg/kg/injection, schedule: Q01DX009 (ip), vehicle: Klucel (hydroxypropylcellulose) (HPC) 113 % of control | dose: 18.0 mg/kg/injection, schedule: Q01DX009 (ip), vehicle: Klucel (hydroxypropylcellulose) (HPC) 92 % of control | dose: 36.0 mg/kg/injection, schedule: Q01DX009 (ip), vehicle: Klucel (hydroxypropylcellulose) (HPC) 98 % of control

N#Cc1c2ccccc2c(=O)n2ccccc12
inactive: dose: 100.0 mg/kg/injection, schedule: Q04DX002 (ip), vehicle: Klucel (hydroxypropylcellulose) (HPC) 94 % of control | dose: 200.0 mg/kg/injection, schedule: Q04DX002 (ip), vehicle: Klucel (hydroxypropylcellulose) (HPC) 88 % of control | dose: 400.0 mg/kg/injection, schedule: Q04DX002 (ip), vehicle: Klucel (hydroxypropylcellulose) (HPC) 94 % of control

O=C(O)C(=Cc1c2ccccc2cc2ccccc12)C(=O)O
inactive: dose: 50.0 mg/kg/injection, schedule: Q01DX005 (ip), vehicle: saline with Tween-80 95 % of control | dose: 100.0 mg/kg/injection, schedule: Q01DX005 (ip), vehicle: saline with Tween-80 99 % of control | dose: 200.0 mg/kg/injection, schedule: Q01DX005 (ip), vehicle: saline with Tween-80 114 % of control

O=c1[nH]c2cc(Cl)ccc2nc1/C=C(\O)c1ccc(F)cc1
inactive: [9] 89 % of control | dose: 120.0 mg/kg/injection, schedule: Q01DX005 (ip), vehicle: saline with Tween-80 87 % of control | dose: 240.0 mg/kg/injection, schedule: Q01DX005 (ip), vehicle: saline with Tween-80 102 % of control

COc1cc2c(cc1OC)C13CCC(O)CC1=CC2(C)O3 (configuration not stated)
inactive: [1] 96 % of control | [2] 96 % of control | [3] 89 % of control

CC(C)(C)c1ccc(CN2CCN(C(c3ccccc3)c3ccc(Cl)cc3)CC2)cc1 (configuration not stated)
inactive: dose: 2.0 mg/kg/injection, schedule: Q01DX009 (ip), vehicle: saline with Tween-80 89 % of control | dose: 4.0 mg/kg/injection, schedule: Q01DX009 (ip), vehicle: saline with Tween-80 95 % of control | dose: 8.0 mg/kg/injection, schedule: Q01DX009 (ip), vehicle: saline with Tween-80 89 % of control | dose: 16.0 mg/kg/injection, schedule: Q01DX009 (ip), vehicle: saline with Tween-80 94 % of control | dose: 32.0 mg/kg/injection, schedule: Q01DX009 (ip), vehicle: saline with Tween-80 94 % of control | dose: 64.0 mg/kg/injection, schedule: Q01DX009 (ip), vehicle: saline with Tween-80 94 % of control

Cc1cc(N=[N+]=[N-])c2cc(F)ccc2n1
inactive: dose: 30.0 mg/kg/injection, schedule: Q01DX005 (ip), vehicle: saline with Tween-80 92 % of control | [9] 90 % of control and 92 % of control

CC([NH-])CC(C)[NH-].[Cl][Pt+2][Cl] (configuration not stated)
inactive: dose: 0.78 mg/kg/injection, schedule: Q04DX002 (ip), vehicle: saline with Tween-80 119 % of control

O=S(=O)(Oc1ccc(Cl)cc1)C(F)(F)C(F)(F)C(F)(F)C(F)(F)F
inactive: dose: 50.0 mg/kg/injection, schedule: Q01DX009 (ip), vehicle: saline with Tween-80 105 % of control | [5] 108 % of control | [7] 105 % of control

C=C1C2CCC3C4(C)CCCC(C)(C(=O)O)C4CCC3(C2)C1O (configuration not stated)
inactive: dose: 15.0 mg/kg/injection, schedule: Q01DX005 (ip), vehicle: Klucel (hydroxypropylcellulose) (HPC) 100 % of control | dose: 30.0 mg/kg/injection, schedule: Q01DX005 (ip), vehicle: Klucel (hydroxypropylcellulose) (HPC) 100 % of control | dose: 60.0 mg/kg/injection, schedule: Q01DX005 (ip), vehicle: Klucel (hydroxypropylcellulose) (HPC) 99 % of control | dose: 120.0 mg/kg/injection, schedule: Q01DX005 (ip), vehicle: Klucel (hydroxypropylcellulose) (HPC) 100 % of control

CSC(=NS(=O)(=O)c1ccc(C)cc1)SC
inactive: [4] 109 % of control | [6] 106 % of control | [8] 113 % of control
